Reference: ChEMBL document CHEMBL3739261, “Synthesis and antibacterial activity evaluation of C-5 side chain modified analogues of FYL-66, a potential agent against methicillin-resistant Staphylococcus aureus” (Medchemcomm, 2015)
≈ marks a conversion by molar mass, not a printed value. Calls of active or inactive are those of the source. The rule behind the calls is not given here.

What was measured:
[1] = Tmax in Sprague-Dawley rat blood at 10 mg/kg, po by HPLC analysis; assay type: ADME, organism-based
[2] = Cytotoxicity against human L02 cells after 48 hrs by MTT assay; assay type: cell-based; conditions: L02, 48 h
[3] = Clearance in Sprague-Dawley rat blood at 10 mg/kg, iv by HPLC analysis; assay type: ADME, organism-based
Staphylococcus aureus [4] = assay: Antibacterial activity against methicillin-resistant Staphylococcus aureus ATCC 33591 in neutropenic Kunming mouse systemic infection model assessed as survival rate at 20 mg/kg, po administered 1 hr post inoculation measured on day 1 to 2; assay type: functional; conditions: ATCC 33591, po
Staphylococcus aureus [5] = assay: Antibacterial activity against methicillin-susceptible Staphylococcus aureus ATCC 29213 incubated for 18 hrs by broth microdilution method; assay type: functional; conditions: ATCC 29213, 18 h
[6] = Octanol/water partition coefficient, log P of the compound by HPLC assay; assay type: physicochemical
Staphylococcus aureus [7] = assay: Antibacterial activity against methicillin-resistant Staphylococcus aureus; assay type: functional
[8] = Solubility of compound in distilled water after 24 hrs by HPLC analysis; assay type: physicochemical
[9] = AUC (0 to infinity) in Sprague-Dawley rat blood at 10 mg/kg, iv by HPLC analysis; assay type: ADME, organism-based; parameters: dose 10 mg/kg, route intravenous, time infinity
[10] = Half life in Sprague-Dawley rat blood at 10 mg/kg, po by HPLC analysis; assay type: ADME, organism-based
[11] = Half life in Sprague-Dawley rat blood at 10 mg/kg, iv by HPLC analysis; assay type: ADME, organism-based
Streptococcus pneumoniae = assay: Antibacterial activity against Penicillin-resistant Streptococcus pneumoniae; assay type: functional
[12] = AUC (0 to infinity) in Sprague-Dawley rat blood at 10 mg/kg, po by HPLC analysis; assay type: ADME, organism-based; parameters: dose 10 mg/kg, route oral, time infinity
Enterococcus [13] = assay: Antibacterial activity against vancomycin-resistant Enterococcus; assay type: functional
Staphylococcus aureus [14] = assay: Antibacterial activity against methicillin-susceptible Staphylococcus aureus CMCC 2603 incubated for 18 hrs by broth microdilution method; assay type: functional; conditions: CMCC 2603, 18 h
Enterococcus [15] = assay: Antibacterial activity against Enterococcus; assay type: functional
[16] = Cytotoxicity against HEK293A cells after 48 hrs by MTT assay; assay type: cell-based; conditions: Homo sapiens, HEK293-A
Staphylococcus aureus [17] = assay: Antibacterial activity against methicillin-resistant Staphylococcus aureus ATCC 33591 incubated for 18 hrs by broth microdilution method; assay type: functional; conditions: ATCC 33591, 18 h
[18] = Oral bioavailability in Sprague-Dawley rat blood at 10 mg/kg by HPLC analysis; assay type: ADME, organism-based
[19] = Tmax in Sprague-Dawley rat blood at 10 mg/kg, iv by HPLC analysis; assay type: ADME, organism-based
Staphylococcus aureus [20] = assay: Antibacterial activity against methicillin-resistant Staphylococcus aureus ATCC 43300 incubated for 18 hrs by broth microdilution method; assay type: functional; conditions: ATCC 43300, 18 h
Staphylococcus aureus [21] = assay: Antibacterial activity against methicillin-susceptible Staphylococcus aureus ATCC 25923 incubated for 18 hrs by broth microdilution method; assay type: functional; conditions: ATCC 25923, 18 h
Pseudomonas aeruginosa = assay: Antibacterial activity against Pseudomonas aeruginosa ATCC 27853 incubated for 18 hrs by broth microdilution method; assay type: functional; conditions: ATCC 27853, 18 h
[22] = Cmax in Sprague-Dawley rat blood at 10 mg/kg, po by HPLC analysis; assay type: ADME, organism-based; parameters: dose 10 mg/kg, route oral
Staphylococcus aureus [23] = assay: Antibacterial activity against methicillin-susceptible Staphylococcus aureus ATCC 6538 incubated for 18 hrs by broth microdilution method; assay type: functional; conditions: ATCC 6538, 18 h
Escherichia coli = assay: Antibacterial activity against Escherichia coli ATCC 25922 incubated for 18 hrs by broth microdilution method; assay type: functional; conditions: ATCC 25922, 18 h
[24] = Clearance in Sprague-Dawley rat blood at 10 mg/kg, po by HPLC analysis; assay type: ADME, organism-based
[25] = Cmax in Sprague-Dawley rat blood at 10 mg/kg, iv by HPLC analysis; assay type: ADME, organism-based; parameters: dose 10 mg/kg, route intravenous
Staphylococcus aureus [26] = assay: Antibacterial activity against methicillin-resistant Staphylococcus aureus ATCC 33591 in neutropenic Kunming mouse systemic infection model assessed as survival rate at 10 mg/kg, po administered 1 hr post inoculation measured after 1 week; assay type: functional, organism-based
Staphylococcus aureus [27] = assay: Antibacterial activity against methicillin-resistant Staphylococcus aureus ATCC 33591 in neutropenic Kunming mouse systemic infection model assessed as survival rate at 20 mg/kg, po administered 1 hr post inoculation measured on day 3; assay type: functional

Structure (SMILES) | IC50 [2] [µg/mL] | MIC (Staphylococcus aureus [5]) [µg/mL] | logP [6] | solubility at 24 h [8] [µM] | MIC (Staphylococcus aureus [14]) [µg/mL] | IC50 [16] [µg/mL] | MIC (Staphylococcus aureus [17]) [µg/mL] | MIC (Staphylococcus aureus [20]) [µg/mL] | MIC (Staphylococcus aureus [21]) [µg/mL] | MIC (Pseudomonas aeruginosa) [µg/mL] | MIC (Staphylococcus aureus [23]) [µg/mL] | MIC (Escherichia coli) [µg/mL] | other results
CC(=O)NC[C@H]1CN(c2ccc(-n3cc(-c4ccccn4)cn3)c(F)c2)C(=O)O1 [listing 1 of 2 here] | 261 (≈ 660 µM) | 2 (≈ 5.06 µM) | 1.35 | 134 (≈ 52.8 µg/mL) | 2 (≈ 5.06 µM) | 174 (≈ 440 µM) | 2 (≈ 5.06 µM) | 2 (≈ 5.06 µM) | 2 (≈ 5.06 µM) | > 32 | 2 (≈ 5.06 µM) | > 32 | Tmax [1]: 11 h; clearance [3]: 0.833 mL/min/kg; survival at 20 mg/kg (Staphylococcus aureus [4]): 30%; MIC (Staphylococcus aureus [7]): 0.25 µg/mL (≈ 0.632 µM); AUC(0-inf) [9]: 205 µg·h/mL; half-life [10]: 13.1 h; half-life [11]: 0.88 h; MIC (Streptococcus pneumoniae): 0.25 µg/mL (≈ 0.632 µM); AUC(0-inf) [12]: 157 µg·h/mL; MIC (Enterococcus [13]): 0.25 µg/mL (≈ 0.632 µM); MIC (Enterococcus [15]): 0.25 µg/mL (≈ 0.632 µM); bioavailability [18]: 76.7%; Tmax [19]: 6.6 min; Cmax [22]: 5770 ng/mL; CL/F [24]: 1.5 mL/min/kg
O=C(NC[C@H]1CN(c2ccc(-n3cc(-c4ccccn4)cn3)c(F)c2)C(=O)O1)C(F)F | > 400 | 2 (≈ 4.64 µM) | 1.9 | 29.9 (≈ 12.9 µg/mL) | 2 (≈ 4.64 µM) | 167 (≈ 387 µM) | 2 (≈ 4.64 µM) | 2 (≈ 4.64 µM) | 2 (≈ 4.64 µM) | > 32 | 2 (≈ 4.64 µM) | > 32 | Cmax [25]: 15000 ng/mL; Tmax [1]: 1.5 h; clearance [3]: 3 mL/min/kg; survival at 20 mg/kg (Staphylococcus aureus [4]): 40%; Activity (Staphylococcus aureus [26]): Active; AUC(0-inf) [9]: 57.6 µg·h/mL; half-life [10]: 8.87 h; half-life [11]: 5.4 h; AUC(0-inf) [12]: 51.6 µg·h/mL; bioavailability [18]: 89.6%; Tmax [19]: 6.6 min; Cmax [22]: 4360 ng/mL; survival at 20 mg/kg (Staphylococcus aureus [27]; ATCC 33591, po): 30%; CL/F [24]: 3.33 mL/min/kg
CC(=O)NC[C@H]1CN(c2ccc(-n3cc(-c4ccccn4)cn3)c(F)c2)C(=O)O1.Cl | – | – | – | – | – | – | – | – | – | – | – | – | MIC (Staphylococcus aureus [7]): 0.25 µg/mL; MIC (Streptococcus pneumoniae): 0.25 µg/mL; MIC (Enterococcus [13]): 0.25 µg/mL; MIC (Enterococcus [15]): 0.25 µg/mL
CC(=O)NC[C@H]1CN(c2ccc(N3CCOCC3)c(F)c2)C(=O)O1 [LINEZOLID] | 213 (≈ 631 µM) | – | – | – | – | 215 (≈ 637 µM) | – | – | – | > 32 | – | > 32 | survival at 20 mg/kg (Staphylococcus aureus [4]): 30%; Activity (Staphylococcus aureus [27]): Active
COC(=O)CC1CCN(C[C@H]2CN(c3ccc(-n4cc(-c5ccccn5)cn4)c(F)c3)C(=O)O2)CC1 | > 400 | > 32 | 1.78 | 92.1 (≈ 45.5 µg/mL) | > 32 | 224 (≈ 454 µM) | > 32 | > 32 | > 32 | > 32 | > 32 | > 32 | –
CN(C)S(=O)(=O)NC[C@H]1CN(c2ccc(-n3cc(-c4ccccn4)cn3)c(F)c2)C(=O)O1 | 158 (≈ 343 µM) | > 32 | 1.38 | 472 (≈ 217 µg/mL) | > 32 | 249 (≈ 541 µM) | > 32 | > 32 | > 32 | > 32 | > 32 | > 32 | –
O=C1O[C@@H](CN2CCC(c3ccc(F)cc3)CC2)CN1c1ccc(-n2cc(-c3ccccn3)cn2)c(F)c1 | > 400 | > 32 | 5.78 | ≤ 19.4 | > 32 | > 400 | > 32 | > 32 | > 32 | > 32 | > 32 | > 32 | –
CC(=O)NC[C@H]1CN(c2ccc(-n3cc(-c4ccccn4)cn3)c(F)c2)C(=O)O1 [listing 2 of 2 here] | – | – | – | – | – | – | – | – | – | – | – | – | Activity (Staphylococcus aureus [27]): Active
COC[C@H]1CN(c2ccc(-n3cc(-c4ccccn4)cn3)c(F)c2)C(=O)O1 | > 400 | > 32 | 2.18 | 36.2 (≈ 13.3 µg/mL) | > 32 | > 400 | > 32 | > 32 | > 32 | > 32 | > 32 | > 32 | –
O=C1OC(Cn2ccnc2)CN1c1ccc(-n2cc(-c3ccccn3)cn2)c(F)c1 (single isomer, unassigned) | 350 (≈ 865 µM) | > 32 | 1.73 | 12.3 (≈ 4.97 µg/mL) | > 32 | > 400 | > 32 | > 32 | > 32 | > 32 | > 32 | > 32 | –
O=C(OC[C@H]1CN(c2ccc(-n3cc(-c4ccccn4)cn3)c(F)c2)C(=O)O1)c1ccccc1 | > 400 | > 32 | 4.21 | ≤ 65.4 | > 32 | > 400 | > 32 | > 32 | > 32 | > 32 | > 32 | > 32 | –
CNC(=O)[C@H]1CN(c2ccc(-n3cc(-c4ccccn4)cn3)c(F)c2)C(=O)O1 | 217 (≈ 569 µM) | 8 (≈ 21 µM) | 1.39 | 26.2 (≈ 9.99 µg/mL) | 8 (≈ 21 µM) | 342 (≈ 897 µM) | 16 (≈ 42 µM) | 16 (≈ 42 µM) | 8 (≈ 21 µM) | > 32 | 8 (≈ 21 µM) | > 32 | –
